# Patent US4415566A, “Cephalosporin derivatives” (Boehringer Ingelheim GmbH, priority 1979, dated 1983)
# Read-outs that look alike come from different tables or passages of the source.
# Key:
# [1] = tested on: Klebsiella pneumoniae ATCC 10 031; experiment: Serial dilution test in the microtiter system (MIC), Klebs. pneum. ATCC 10031; assay type: cell-based
# Method: (§1) These tests were performed according to the method of the serial dilution test in the microtiter system. The effect of the substances on bacteriostasis was examined in a fluid medium. […] A nutrient medium of the following composition was used. 10 gm of peptone, 8 gm of meat extract-oxoid, 3 gm of sodium chloride, 2 gm of sec. sodium phosphate were diluted with distilled water to […] (pH 7.2-7.4). Only in the test against streptococci 1% of glucose was added. The age of the primary cultures was about 20 hours. The standardization of the pathogen suspension was effected by using a photometer according to "Eppendorf" (test tube dismeter 14 mm, filter 546 nm) with the aid of the turbidity of a comparison suspension consisting of barium sulfate, this suspension being prepared by addition of 3.0 ml of 1% barium chloride solution to 97 ml of 1% sulfuric acid. After the standardization, streptococcus aronson were further diluted to a concentration of 1:15 and the other microorganisms to a concentration of 1:1500 by means of a sodium chloride solution.
# (§2) 16 mg of the test substance were put into a 10 ml-measuring flask and filled up to the mark with the solvent. The further dilution series was standardized with distilled water or the respective solvent.
# (§3) The cavities of the microtiter plates were filled with 0.2 ml of nutrient medium. Then, 0.01 ml of the corresponding test substance dilution was added and inoculated with 0.01 ml of the standardized suspension. The bacteria were incubated at 37° C. for 18-20 hours. Control tests merely using the solvent were carried out simultaneously.
# (§4) The measurement was carried out macroscopically to determine the minimal inhibitory (threshold) concentration, i.e. the lower still bacteriostatically effective concentration.
# (§5) Staphylococcus aureus SG 511, Escherichia coli ATCC 11 775, Pseudomonas aeruginosa Hamburgensis and Pseudomonas aeruginosa Walter, Serratia marcescens ATCC 13880, Klebsiella pneumoniae ATCC 10 031 and 272, Proteus mirabilis Hamburgensis, Proteus rettgeri, Enterbacter cloaceae ATCC 13 047 and E. Coli R+TEM (β-lactamase carrier).
# [2] = tested on: Klebsiella pneumoniae 272; experiment: Serial dilution test in the microtiter system (MIC), Klebs. pneum. 272; assay type: cell-based
# Method: as §1, §2, §3, §4, §5
# [3] = tested on: Proteus mirabilis Hamburgensis; experiment: Serial dilution test in the microtiter system (MIC), Prot. mirabilis; assay type: cell-based
# Method: as §1, §2, §3, §4, §5
# [4] = tested on: Staphylococcus aureus SG 511; experiment: Serial dilution test in the microtiter system (MIC), S. aureus SG 511; assay type: cell-based
# Method: as §1, §2, §3, §4, §5
# [5] = tested on: Escherichia coli ATCC 11 775; experiment: Serial dilution test in the microtiter system (MIC), E. Coli ATCC 11775; assay type: cell-based
# Method: as §1, §2, §3, §4, §5
# [6] = tested on: Pseudomonas aeruginosa Walter; experiment: Serial dilution test in the microtiter system (MIC), Pseud. aerug. Walter; assay type: cell-based
# Method: as §1, §2, §3, §4, §5
# E. Coli ATCC 9637 = experiment: Serial dilution test in the microtiter system (MIC), E. Coli ATCC 9637; assay type: cell-based; settings: Escherichia coli, ATCC9637
# [7] = tested on: Pseudomonas aeruginosa Hamburgensis; experiment: Serial dilution test in the microtiter system (MIC), Pseud. aerug. Hbg.; assay type: cell-based; settings: Pseud. aerug. Hbg., 37° C., 18-20 hours, read-out: MIC
# Method: as §1, §2, §3, §4, §5
# [8] = tested on: Enterbacter cloaceae ATCC 13 047; experiment: Serial dilution test in the microtiter system (MIC), Eb. cloaceae ATCC 13047; assay type: cell-based
# Method: as §1, §2, §3, §4, §5
# Proteus rettgeri = experiment: Serial dilution test in the microtiter system (MIC), Prot. rettgeri; assay type: cell-based; settings: Providencia rettgeri, 37° C., 18-20 hours, read-out: MIC
# Method: as §1, §2, §3, §4, §5
# [9] = tested on: Serratia marcescens ATCC 13880; experiment: Serial dilution test in the microtiter system (MIC), Serrat. marcesc. ATCC 13880; assay type: cell-based
# Method: as §1, §2, §3, §4, §5
# [10] = tested on: Psuedomonas aeruginosa Walter; experiment: In vivo activity in mice, Pseudomonas infection; design: species or system Female NMRI mice; settings: Mus musculus, iPSC, sc, 168 h; Pseudomonas infection i.p.; s.c. administration; per dose; observation 7 days; read-out: ED50 (dose at which 50% of the animals survived)
# Method: (§6) A number of compounds of this invention were tested in vivo in mice against experimental infections. Bacteria E. coli ATCC 11775 and Psuedomonas aeruginosa Walter were used as pathogens. An intraperitoneal infection with 0.2 ml of a 5% suspension of the bacteria was induced. This corresponds to about 2×10^6 E. Coli germs and 8×10^5 pseudomonas germs/mouse. […] The groups with E. coli infection were treated with the test compound three times on the first day (1, 4, and 7 hours post infectionem) and for two days thereafter twice a day. The groups with the pseudomonas infection were treated with the test compound 6 times on the first day (1, 3, 6, 9, 12 and 15 hours post infectionem) and for two days thereafter twice a day. The observation time was in both cases 7 days. The results of these tests with representatives of the penicillins and cephalosporins according to the invention are shown in the following table: […]
# E. coli ATCC 11775 = experiment: In vivo activity in mice, E. coli infection; design: species or system Female NMRI mice; settings: Escherichia coli, ATCC11775, iPSC, sc, 168 h; E. coli infection i.p.; s.c. administration; per dose; observation 7 days; read-out: ED50 (dose at which 50% of the animals survived)
# Method: as §6
# [11] = Table IV, Klebs. pneum. ATCC 10031, 37° C., 18-20 hours, read-out: MIC
# [12] = Table III, Pseud. aerug. Walter, 37° C., 18-20 hours, read-out: MIC
# [13] = Table III, E. Coli ATCC 9637, 37° C., 18-20 hours, read-out: MIC
# [14] = Table III, Prot. mirabilis, 37° C., 18-20 hours, read-out: MIC
# [15] = Table III, E. Coli ATCC 11775, 37° C., 18-20 hours, read-out: MIC
# [16] = ATCC13880, Table III, Serrat. marcesc. ATCC 13880, 37° C., 18-20 hours, read-out: MIC
Structure (SMILES),"MIC [1, 11] [µg/mL]",MIC [2]; 272 [µg/mL],MIC [3] [µg/mL],MIC [5] [µg/mL],MIC [1] [µg/mL],"MIC [6, 12] [µg/mL]",MIC (E. Coli ATCC 9637; [13]) [µg/mL],MIC ([7]; Table III) [µg/mL],"MIC [3, 14] [µg/mL]","MIC [5, 15] [µg/mL]",MIC [8] [µg/mL],"MIC (Proteus rettgeri; Table III, Prot. rettgeri) [µg/mL]","MIC [9, 16] [µg/mL]",MIC [6] [µg/mL],also measured
"Cc1nnc(SCC2=C(C(=O)O)N3C(=O)[C@@H](NC(=O)Cn4cnnn4)[C@H]3SC2)s1 [Cephazolin, reference compound]",1,2,4,4,–,–,–,–,–,–,–,–,–,–,"MIC ([4]; SG511, Table IV, S. aureus SG 511, 37° C., 18-20 hours, read-out: MIC): 0.06 µg/mL"
"CC1(C)S[C@@H]2[C@H](NC(=O)[C@H](NC(=O)Nc3cnc(Nc4ccc(S(C)(=O)=O)nc4)nc3O)c3ccc(O)cc3)C(=O)N2[C@H]1C(=O)O [Compound E, D-α-{3-[4-Hydroxy-2-(6'-methylsulfonyl-3'-pyridylamino)-5-pyrimidinyl]-ureido}-p-hydroxy-benzyl-penicillin sodium]",–,2,–,–,2,1,0.2,1,0.06,0.2,2,0.25,0.2,–,–
"CC1(C)S[C@@H]2[C@H](NC(=O)[C@H](NC(=O)Nc3cnc(NCc4ccco4)nc3O)c3ccc(O)cc3)C(=O)N2[C@H]1C(=O)O [D, D-α-{3-[4-Hydroxy-2-(2'-furylmethylamino)-5-pyrimidinyl]-ureido}-p-hydroxy-benzyl-penicillin sodium]",–,–,0.25,1,4,–,0.5,1,–,–,4,0.5,0.5,2,"ED50 [10]: 1.5 mg/kg; MIC ([2]; Table III, Klebs. pneum. 272, 37° C., 18-20 hours, read-out: MIC): 8 µg/mL; ED50 (E. coli ATCC 11775): 0.8 mg/kg"
"Cc1ncc(CNc2ncc(NC(=O)N[C@@H](C(=O)N[C@@H]3C(=O)N4[C@@H]3SC(C)(C)[C@@H]4C(=O)O)c3ccc(O)cc3)c(O)n2)cn1 [F, D-α-{3-[4-Hydroxy-2-(2'-methyl-5'-pyrimidinylmethylamino)-5-pyrimidinyl]-ureido}-p-hydroxy-benzyl-penicillin sodium]",–,8,–,–,8,1,–,–,0.06,0.5,4,0.5,0.5,–,MIC (E. Coli ATCC 9637): 0.5 µg/mL
"CC1(C)S[C@@H]2[C@H](NC(=O)[C@H](NC(=O)Nc3cnc(Nc4ccc(O)nc4)nc3O)c3ccc(O)cc3)C(=O)N2[C@H]1C(=O)O [G, D-α-{3-[4-Hydroxy-2-(6'-hydroxy-3'-pyridylamino)-5-pyrimidinyl]-ureido}-p-hydroxy-benzyl-penicillin sodium]",–,4,–,–,4,0.5,0.2,0.5,0.01,0.2,4,0.5,0.1,–,–
CC(=O)OCC1=C(C(=O)O)N2C(=O)[C@@H](NC(=O)[C@H](NC(=O)Nc3cnc(NCc4ccco4)nc3O)c3ccc(O)cc3)[C@H]2SC1 [K],1,–,–,–,–,–,–,–,–,–,4,–,–,8,"MIC ([7]; Table IV): 16 µg/mL; MIC ([2]; Table IV, Klebs. pneum. 272, 37° C., 18-20 hours, read-out: MIC): 1 µg/mL; MIC ([3]; Table IV, Prot. mir. Hbg., 37° C., 18-20 hours, read-out: MIC): 0.25 µg/mL; MIC ([4]; SG511): 1 µg/mL; MIC ([5]; Table IV, E. Coli ATCC 11775, 37° C., 18-20 hours, read-out: MIC): 0.5 µg/mL; MIC (Proteus rettgeri; Table IV, Prot. rettg.): 1 µg/mL; MIC ([9]; ATCC13880): 2 µg/mL"
